The source of these data is patent US9878070B2, “Malleable implants including an oxysterol and methods of use” (Warsaw Orthopedic, Inc., priority 2015, dated 2018).

“Also recorded” adds a separate entry of the source.

For assay [1], the system named is multipotent mesenchymal cells such as M2-10B4 (M2) marrow stromal cells and C3H10T1/2 embryonic fibroblasts. As to conditions: cited from earlier work.
Assay [2] deals with rat two-level spine model. Nature of the assay: Posterolateral spinal fusion in a rat two-level spine model (radiographs, manual palpation). It is filed as in vivo. The conditions noted are these: collagen/ceramic matrix wetted with sterile water, bilateral in posterolateral space, 4-week and 8-week timepoints. Here is the method:
FIG. 6 illustrates uses of a formulation of malleable implants having 20 mg of Oxy133 on each side of the implant, in accordance with the malleable implants described herein. […] A dry composition of a matrix containing Oxy133, collagen and ceramic as described herein was prepared and wetted with sterile water to be implanted in rat spines as shown in FIG. 6. The wetted matrix was cut in half with a razor blade to yield two halves. The two implants were molded into cylindrical shapes prior to insertion and were positioned bilaterally in the posterolateral space of each test subject. Each implant contained 20 mg Oxy133. Radiographs were taken roughly 10 minutes after the procedure, 4 weeks after the procedure, and 8 weeks after the procedure. […] Fusion was tested at 8-week sacrifice by manual palpation. […] A dry composition of a matrix containing Oxy133, collagen and ceramic as described herein was prepared and wetted with sterile water to be implanted in rat spines as shown in FIG. 6. The wetted matrix was cut in half with a razor blade to yield two halves. The two implants were molded into cylindrical shapes prior to insertion and were positioned bilaterally in the posterolateral space of each test subject. Each implant contained 125 mg Oxy133. Radiographs were taken roughly 10 minutes after the procedure, 4 weeks after the procedure, and 8 weeks after the procedure. […]

Consider `CC(C)CCC[C@](C)(O)[C@H]1CC[C@H]2[C@@H]3CC=C4C[C@@H](O)CC[C@]4(C)[C@H]3CC[C@@]21C` [20(S)-hydroxycholesterol], for which the osteogenic differentiation entry in assay [1] was “induce osteogenic differentiation”.
For `CC(C)CC[C@@H](O)[C@@H](C)[C@H]1CC[C@H]2[C@@H]3CC=C4C[C@@H](O)CC[C@]4(C)[C@H]3CC[C@]12C` [22(R)-hydroxycholesterol], the osteogenic differentiation result in assay [1] is “induce osteogenic differentiation”.
With `CC(C)CC[C@H](O)[C@@H](C)[C@H]1CC[C@H]2[C@@H]3CC=C4C[C@@H](O)CC[C@]4(C)[C@H]3CC[C@]12C` [22(S)-hydroxycholesterol], the osteogenic differentiation entry in assay [1] was “induce osteogenic differentiation”.
`CCCCCC[C@](C)(O)[C@H]1CC[C@H]2[C@@H]3C[C@H](O)[C@H]4C[C@@H](O)CC[C@]4(C)[C@H]3CC[C@@]21C` [Oxy133, (3S,5S,6S,8R,9S,10R,13S,14S,17S) 17-((S)-2-hydroxyoctan-2-yl)-10,13-dimethylhexadecahydro-1H-cyclopenta[a]phenanthrene-3,6-diol]: the “bridging bone across the transverse processes of L3-L5 / bone growth (radiographs)” value in assay [2] (20 mg Oxy133 per implant) and in assay [2] (125 mg Oxy133 per implant) was “promoted bridging bone; also recorded: Bone growth in rat test subjects can be seen” throughout.
